row,melting point [°C],SMILES
1,163 to 165,Nc1cccc(Cn2[nH]c(=O)ccc2=O)c1
2,39 to 41,CC(=O)c1ccc(Cl)c(F)c1
3,118 to 120,N#Cc1ccccc1Oc1ccc(N)cc1
4,112 to 114,OCc1c[nH]c2ccc(Br)cc12
5,150 to 152,O=C(O)c1ccc(-c2ccccc2OC(F)(F)F)cc1F
6,319 to 321,O=C1COc2ncc(C(=O)O)cc2N1
7,158 to 160,CC1(C)OC(=O)c2c1ccnc2Cl
8,133 to 135,COc1cc(C#N)c2ccccc2n1
9,159 to 161,Cc1cc(S(N)(=O)=O)cc(N)c1C
10,69 to 71,CC(Cl)c1cn(-c2ccccc2)nn1 (configuration not stated)
11,192 to 194,COc1cc2c(cc1OC)CC(=O)NCC2
12,183 to 185,Cc1c(N)cccc1CS(C)=O (configuration not stated)
13,122 to 124,CC1CNC(=O)CC(C)C1 (configuration not stated)
14,74 to 76,O=C(NCc1ccco1)c1cccc(CCl)c1
15,151 to 153,Nc1nc(-c2sccc2Br)cs1
16,189 to 191,O=C(O)c1ccccc1NCc1cccnc1
17,82 to 84,COC(=O)C(c1ccc(F)cc1)N1CCN(C(=O)OC(C)(C)C)CC1 (configuration not stated)
18,127 to 129,Cc1ccc(-c2nc(N)sc2C)s1
19,47 to 49,O=C(c1cccnc1)c1cccc(Cl)c1
20,58 to 60,CN(C)C(=O)Cn1ccc(N)n1
21,189 to 191,Cc1cc(C(=O)O)n2nc(C)cc2n1
22,98 to 101,Cc1cc2cc(F)ccc2[nH]1
23,77 to 79,Cc1cccc(-c2nonc2N)c1
24,65 to 67,CC(=O)c1nc2ccccc2n1C(F)F
25,117 to 119,NC(=O)C1CC(O)CN1 (configuration not stated)

row,melting point [°C],SMILES
1,86 to 88,Cc1ccc(-c2cc(CBr)on2)cc1
2,151 to 153,O=C(Nc1cn[nH]c1)OCC(F)(F)F
3,148 to 150,Clc1ccnc2c(Br)cccc12
4,145 to 147,NS(=O)(=O)c1ccc2c(c1)CCCO2
5,61 to 63,NNc1cccc(F)c1F
6,154 to 156,COC(=O)c1cnc[nH]1
7,149 to 151,O=C(c1c(Cl)cccc1Cl)N1CCNCC1
8,259 to 261,CS(=O)(=O)c1nc(C(=O)O)c2ccccn12
9,183 to 185,CC(=O)Nc1c[nH]c(C)c1C(=O)O
10,116 to 118,O=C(O)c1ncccc1OCC(F)(F)F
11,183 to 185,CON=Cc1ccc(C(=O)O)cc1
12,234 to 236,O=C(O)c1cc(S(=O)(=O)N2CCOCC2)ccc1O
13,143 to 145,N#CCn1c(CCl)nc2ccccc2c1=O
14,113 to 115,CCOC(=O)COc1ccc(Cl)c2cccnc12
15,82 to 84,C#Cc1nc2ccccc2n1C
16,248 to 250,O=C(O)c1cnc2c(cnn2Cc2cccnc2)c1
17,37 to 39,OCc1ccc(Cc2ccccc2)cc1
18,126 to 128,O=C(O)c1cccnc1S(=O)(=O)C(F)(F)F
19,308 to 313,Sc1nnc(-c2ccncc2)[nH]1
20,144 to 146,COc1cc(C(=O)O)ccc1OC(C)=O
21,200 to 202,COc1cc(-c2cc(C(=O)NN)c3ccccc3n2)cc(OC)c1OC
22,186 to 188,Cc1n[nH]c2ncc(N)cc12
23,134 to 136,CC(=O)Nc1ccc(C)c(N)c1
24,119 to 121,Cc1ccc(-n2nc(C)cc2N)nn1
25,188 to 190,CN(CC(=O)Nc1c(Cl)cccc1Cl)C(=O)CCl

row,melting point [°C],SMILES
1,158 to 160,CS(=O)(=O)Cc1nc(=N)o[nH]1
2,74 to 76,NCCc1ccc(S(=O)(=O)N2CCCCC2)s1
3,79 to 81,O=C(CCl)NCc1ccccc1F
4,169 to 171,CC1CNC(=O)N1c1cccc(N)c1 (configuration not stated)
5,90 to 92,O=C1CC(c2ccc(Cl)cc2)N1 (configuration not stated)
6,260 to 262,O=c1[nH][nH]c2ncccc12
7,126 to 128,CCOc1ccc(-c2cc(N)on2)cc1
8,252 to 254,O=C1NC(=O)C2(CCc3cc(Cl)ccc32)N1 (configuration not stated)
9,138 to 140,Cc1ccc(C(C)(C)C)cc1S(N)(=O)=O
10,96 to 98,COc1ccccc1CC(C)=CC(=O)O
11,71 to 73,OC1CCCCC1c1ccc(F)cc1 (configuration not stated)
12,48 to 50,CC(C)(CCCc1ccccc1)C(=O)O
13,118 to 120,CC(C)(C#N)S(=O)(=O)c1ccc(Br)cc1
14,135 to 137,Cc1cc2ncn(Cc3ccc(F)cc3)c2cc1C
15,234 to 236,Cc1ccccc1N1C(=O)c2ccc(C(=O)O)cc2C1=O
16,106 to 108,O=C(O)CCCc1ccc(O)cc1
17,145 to 150,Nc1nc(CN2CCOCC2)cs1
18,87 to 89,O=S(=O)(Cl)c1cccc(-c2nnco2)c1
19,47 to 49,ClCc1nc(-c2cccc(Br)c2)no1
20,141 to 143,CCOC(=O)/C(C#N)=C\Nc1ccc(Cl)cc1
21,168 to 170,Cn1cc(Cl)cc1C(=O)NN
22,82 to 84,COC(=O)c1ccc(Oc2cccnc2)cc1
23,139 to 141,COC(=O)c1c[nH]nn1
24,185 to 187,O=C(O)CN1C(=O)CNC1=O
25,86 to 88,Nc1nonc1C(=O)N1CCCCC1

row,melting point [°C],SMILES
1,225 to 227,O=C(O)c1c[nH]c2ccc(F)cc12
2,137 to 139,CCCc1nc(C(=O)O)nn1-c1ccccc1F
3,52 to 54,CNC1CCN(c2cc(OC)cc(OC)c2)C1 (configuration not stated)
4,152 to 154,N#Cc1cccnc1Oc1ccc(N)cc1
5,76 to 78,CC(C)C1CCNC(=O)CC1 (configuration not stated)
6,62 to 64,COC(=O)c1occc1CC#N
7,228 to 230,NS(=O)(=O)c1cc(Cl)c(F)c(C(=O)O)c1
8,123 to 125,CN(C)C(=O)N1CCCC(C(=O)O)C1 (configuration not stated)
9,239 to 241,CC(C)NC(=O)Nc1cccc(C(=O)O)c1
10,219 to 221,CC(C)Cn1c(=O)n(C)c(=O)c2cc(C(=O)O)cnc21
11,72 to 74,NNc1ccc(S(=O)(=O)C(F)F)cc1
12,30 to 41,Fc1ccc(-c2cnc(CBr)o2)cc1
13,287 to 289,O=C(O)c1n[nH]c2c1CCC2
14,189 to 191,O=C(O)c1ccc2c(c1)COCO2
15,107 to 109,Cn1cc(CO)c(-c2ccccc2)n1
16,119 to 121,CCn1ccnc(N)c1=O
17,130 to 132,COc1cc(NC(C)=O)ccc1C(C)=O
18,79 to 81,O=C(c1ccc(S(=O)(=O)Cl)cc1F)N1CCCC1
19,212 to 214,CC1(C)C(=O)NCCN1Cc1ccccc1
20,146 to 148,O=C(O)CCn1nc(-c2cccs2)oc1=O
21,155 to 157,Nc1cccc(-n2cc[nH]c2=O)c1
22,108 to 110,COCC(=O)NC(C)C(=O)O (configuration not stated)

row,SMILES,melting point [°C]
1,O=C1NCCN2CCCC12 (configuration not stated),73 to 75
2,O=C(O)CCCOc1ccccc1Cl,84 to 86
3,Cc1cc(C(=O)CCl)ccc1F,33 to 35
4,CCc1ccc(C(=O)CCl)s1,52 to 54
5,O=[N+]([O-])c1ccc(F)c([N+](=O)[O-])c1F,37 to 39
6,CNC(=O)NC(=O)C(C)Cl (configuration not stated),118 to 120
7,N#Cc1ccc(S)cc1C(F)(F)F,71 to 73
8,NCCc1cccc(OCCCc2ccccc2)c1,44 to 46
9,Cc1[nH]c2ccccc2c1C1CCNCC1,222 to 224
10,CC(NC(=O)CCl)C1CC1 (configuration not stated),50 to 52

# Source: a melting point compilation (Tetko et al.)
